Reference: US20180363057A1, “METHOD FOR EVALUATING INDIVIDUAL RADIOSENSITIVITY AND THE RISK OF ADVERSE EFFECTS” (COMMISSARIAT A L'ENERGIE ATOMIQUE ET AUX ENERGIES …, priority 2015, published 2018)

B1: rh-sTRAIL: recombinant human soluble TRAIL, from R&D Systems (protein, UniProt P50591 39-281, looked up)
extracellular domain: TNELKQMQDKYSKSGIACFLKEDDSYWDPNDEESMNSPCWQVKWQLRQLVRKMILRTSEETISTVQEKQQNISPLVRERGPQRVAAHITGTRGRSNTLSSPNSKNEKALGRKINSWESSRSGHSFLSNLHLRNGELVIHEKGFYYIYSQTYFRFQEEIKENTKNDKQMVQYIYKYTSYPDPILLMKSARNSCWSKDAEYGLYSIYQGGIFELKENDRIFVSVTNEHLIDMDHEASFFGAFLVG
modifications: extracellular domain
notes: recombinant human soluble TRAIL, from R&D Systems

Assays:
Type in all cases: cell-based, human
TRAIL-receptor DR5 = test: Expression of proapoptotic TRAIL-receptor DR5 in T4EM lymphocytes; details: after 1,10-phenanthroline treatment; data not shown
Text: All fluorochrome-coupled monoclonal antibodies were used at saturating conditions, as determined by titrations. Anti-human CD antibodies came from Becton Dickinson ImmunoCytometry Systems (CD62L-PE, CD62L-PECy5.1, CD14-PECy5.1, CD-235a-PECy5.1, CD27-PECy5.1, CD4-PECy7, CD19-PECy7, CD45RA-APC, CD8-APCH7), from Beckman Coulter (CD3-PETxR) from Biolegend (CD253/TRAIL-PE, CD62L- BV421, CD3-BV605), or from R&D Systems (CD262/DR5-APC). Recombinant human soluble TRAIL (rh-sTRAIL) and recombinant human soluble DR5 ([…] was from R&D Systems, AnnexinV-FITC from Becton Dickinson, and 1,10-phenanthroline from Sigma-Aldrich.

T4EM lymphocytes [1] = test: 1,10-phenanthroline induced apoptosis of T4EM lymphocytes (AnnexinV); details: for Effect on 1,10-phenanthroline induced apoptosis of T4EM lymphocytes: 80 μg/ml 1,10-phenanthroline, 2 hours, 4 μg/ml rh-sTRAIL or rh-sDR5
Description: Cell suspensions at approximately 5×10^5 cells/ml (or at cell densities specified in the results section) in RPM11640/15% FCS, were irradiated at a dose rate of approximately 0.5 Gy/min with a ^137Cs-source (IBL637; Cis-Bio international/Scherring, Saclay, France), where incubated in the presence of indicated concentrations of recombinant human soluble TRAIL (rh-sTRAlL), recombinant human soluble DR5 (rh-sDR5), anti-TRAIL cytotoxicity-blocking antibody (CD253; clone RIK-2), or of 1,10-phenanthroline (stock solution of 200 mM in DMSO). All experiments described were performed with the same batch of heat inactivated FCS, previously tested for compatibility with our experimental procedures. Incubations of 18 hours or less as specified in results section were at 37° C. and 5% CO2.
(§1) Treated cells were collected and washed with AnnexinV buffer (140mM NaCl, 5mM CaCl2, 10 mM HEPES; ph7.4), and stained with 2.5 μl AnnexinV-FITC in combination with fluorochrome-conjugated CD markers in 100 ul for 30 min. […] For CD253 (mTRAIL) quantification, a compact panel designed to limit the need for compensation including AnnexinV, CD253, CD3, CD4, and CD62L was used.
Cells were washed in AnnexinV-buffer and just prior flow cytometry, 50 μL of AnnexinV-buffer containing 0.2 μg/mL Hoechst 33258 (Molecular Probes, Eugene, Oreg.), was added for dead cell exclusion. Samples were analyzed using a three-laser CyAn LX system, (DakoCytomation, Fort Collins, Colo.) or a 5-laser SORP LSRII (Becton Dickinson). […] All fluorescence signals were log-amplified, and stored in listmode. CompBeads (Becton Dickinson) were used to assist in determination of spill-over in every individual experiment (CD3-FITC was used instead of AnnexinV-FITC) and Fluorescence Minus One (FMO) controls were used where needed, in particular for mTRAIL quantifications (SortWare; Becton Dickinson or Flowjo version 9.6.4; Treestar, Ashland, Oreg.). […]
Data was analyzed using Flowio. […] Subsequently, dead cells were excluded on the basis of HO33258 fluorescence. T Lymphocytes were identified on the basis of positive PETxR (CD3) fluorescence. […]

mTRAIL = test: Cell-surface mTRAIL (CD253) level by flow cytometry on T4EM lymphocytes; details: 80 μg/ml
Text: TRAIL can be soluble (sTRAIL) or membrane-bound (mTRAIL)(Schneider et al., 1998, J. Exp. Med. 187:1205-1213; Wajant et al., 2001, Oncogene. 20:4101-4106). Under the experimental conditions used for radiation-induced apoptosis of T4EM lymphocytes, the levels of sTRAIL in media were below sandwich ELISA detection level (<20 pg/ml; data not shown). The inventors thus focused their study on mTRAIL. Using a monoclonal antibody panel comprising CD253, they measured the level of cell-surface mTRAIL expression by flow cytometry. A four-fold higher expression of mTRAIL was found on T4EM lymphocytes of “sensitive” compared to “resistant” samples (FIG. 3 A). […]
as §1
Cells were washed in AnnexinV-buffer and just prior flow cytometry, 50 μL of AnnexinV-buffer containing 0.2 μg/mL Hoechst 33258 (Molecular Probes, Eugene, Oreg.), was added for dead cell exclusion. Samples were analyzed using a three-laser CyAn LX system, (DakoCytomation, Fort Collins, Colo.) or a 5-laser SORP LSRII (Becton Dickinson). […]

T4EM lymphocytes [2] = test: Radiation-induced apoptosis of T4EM lymphocytes (AnnexinV labeling, flow cytometry); details: 0.4 μg/ml rh-sTRAIL, 18 hours after irradiation at 0, 0.5, 1, 2 Gy
Text: The sensitivity of subpopulations of human T-lymphocytes to ionizing radiation-induced apoptosis was quantified eighteen hours after irradiation (0-2 Gy) of PBMC samples of healthy blood donors using the previously defined radio sensitivity assay based on immunophenotyping and AnnexinV-labeling. […] Exponential regression coefficients of dose-survival curves were used to classify human PBMC samples according to the radio sensitivity of their T4EM lymphocyte subpopulation, and “sensitive” and “resistant” samples were defined at the two ends of the T4EM radio sensitivity phenotype distribution. […]
as §1
Cells were washed in AnnexinV-buffer and just prior flow cytometry, 50 μL of AnnexinV-buffer containing 0.2 μg/mL Hoechst 33258 (Molecular Probes, Eugene, Oreg.), was added for dead cell exclusion. Samples were analyzed using a three-laser CyAn LX system, (DakoCytomation, Fort Collins, Colo.) or a 5-laser SORP LSRII (Becton Dickinson). […] All fluorescence signals were log-amplified, and stored in listmode. […]

Row | Molecule | Expression of proapoptotic TRAIL-receptor DR5 (TRAIL-receptor DR5) | Induction of apoptosis in T4EM lymphocytes (T4EM lymphocytes [1]; 80 μg/ml, two hours, no irradiation) | mTRAIL level in treated "resistant" samples versus untreated "sensitive" samples (mTRAIL; 2 hours) | mTRAIL expression in T4EM lymphocytes (mTRAIL; two hours after addition, "resistant" and "sensitive" samples) | Effect on 1,10-phenanthroline induced apoptosis of T4EM lymphocytes (T4EM lymphocytes [1]) | Effect on autocrine pro-apoptotic mode of action of mTRAIL in irradiated T4EM lymphocytes (T4EM lymphocytes [2])
1 | c1cnc2c(c1)ccc1cccnc12 [1,10-phenanthroline] | increased expression | rapid induction of apoptosis | always remained lower | increase of mTRAIL expression |  | 
2 | rh-sDR5: recombinant human soluble DR5 receptor |  |  |  |  | inhibited | 
3 | B1 |  |  |  |  | inhibited | abolished
